Target: T1, human MRGPRX2 (Homo sapiens, UniProt Q96LB1)
T1 construct: expressed in transfected cells; host or cells: FlpIn TRex HEK293 (TRex-MRGPRX2-HEK), doxycycline-induced
T1 sequence (Q96LB1 1-330): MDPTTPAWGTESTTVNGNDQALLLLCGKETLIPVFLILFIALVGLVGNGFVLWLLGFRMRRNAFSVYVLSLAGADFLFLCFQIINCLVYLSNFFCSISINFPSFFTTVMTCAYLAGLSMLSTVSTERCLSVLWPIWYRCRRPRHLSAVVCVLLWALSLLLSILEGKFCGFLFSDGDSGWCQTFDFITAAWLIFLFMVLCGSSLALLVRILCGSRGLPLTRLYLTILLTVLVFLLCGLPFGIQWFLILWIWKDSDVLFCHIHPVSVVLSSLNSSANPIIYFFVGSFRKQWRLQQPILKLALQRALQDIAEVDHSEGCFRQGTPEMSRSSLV
Assay: MRGPRX2 Activity Assay (IP-1 HTRF, antagonist mode)
Type: cell-based
Details: FlpIn TRex-MRGPRX2-HEK293 cells; versus 1 μM Cortistatin-14 agonist; 30 minutes preincubation
Protocol: FlpIn TRex-MRGPRX2-HEK293 cells (herein TRex-MRPGRX2-HEK) stably transfected to express human MRGPRX2 were maintained at 37° C. with 5% CO2 and grown in DMEM supplemented with 10% FBS, 1% L-Glutamate, 1% penicillin/streptomycin, 100 ug/mL Hygromycin B, and 15 ug/mL Blasticidin.
GOI (MRGPRX2) expression was induced with 100 ng/mL of Doxycycline 18-24 hours prior to experiment, in flask. On the day of experiment, cells were lifted with TripLE Express and seeded in 384-well white walled opaque bottomed, assay plates, at 8,000 cells per well in 5 uL freshly made assay buffer (HBSS, 20 mM HEPES, 0.1% BSA and 10 mM LiCl). Compounds solubilized in 100% DMSO at 30 mM were serially diluted (1:4) first in 100% DMSO, and an intermediate plate of assay buffer was used to establish a final top concentration of 30 uM (in assay plate). Final DMSO concentration was kept constant at 1% across assay plates. […], at 30 mM stock concentration was solubilized in HBSS+0.1% BSA, stored at −20° C. in 5 μL aliquots and discarded after one freeze-thaw cycle. […].
Antagonist equilibrium was established with 30 minutes preincubation, followed by no wash, direct addition, and stimulation of agonist for 1 hour at 37° C./5% CO2. IP-1 standards and HTRF detection reagents were added according to the IP-one Gq kit protocol purchased from CisBio (part number 62IPAPEJ). The plate was read on an EnVision XCite plate reader. The HTRF ratio was then calculated from raw data (channel1/channel2×10,000) and analyzed using either GraphPad Prism or a custom Python script to calculate IC50 using Log[Antagonist] vs. response (4 parameter) nonlinear regression.

IC50 [nM]	Compound
30	C[C@@H](C(=O)Nc1cn(Cc2cc(Cl)ccc2F)cn1)N1CCC(F)(F)[C@@H](c2cc[n+]([O-])cc2)C1 [Compound 33, 4-((S)-1-((S)-1-((1-(5-chloro-2-fluorobenzyl)-1H-imidazol-4-yl)amino)-1-oxopropan-2-yl)-4,4-difluoropiperidin-3-yl)pyridine 1-oxide]
1610	Cc1nc(NC(=O)[C@@H](C)N2CCC(F)(F)[C@@H](c3cc[n+]([O-])cc3)C2)cn1Cc1ccc(F)cc1F (single isomer, unassigned) [Compound 10]
35	C[C@@H](C(=O)Nc1cn(Cc2cc(F)cc(F)c2)c(C(F)F)n1)N1CCC(F)(F)CC1 [Compound 492, (S)—N-(1-(3,5-difluorobenzyl)-2-(difluoromethyl)-1H-imidazol-4-yl)-2-(4,4-difluoropiperidin-1-yl)propanamide]
> 10000	C[C@@H](C(=O)Nc1nc(Cc2cc(F)cc(F)c2)no1)N1CCC(F)(F)[C@@H](c2cc[n+]([O-])cc2)C1 (single isomer, unassigned) [Compound 58]
> 30000	C[C@@H](C(=O)Nc1cn2c(n1)CC[C@@H]2c1cc(F)cc(F)c1)N1CCC(F)(F)[C@@H](c2cc[n+]([O-])c(CN3CCC(F)(F)CC3)c2)C1 (single isomer, unassigned) [Compound 534]
214	C[C@@H](C(=O)Nc1cn(Cc2ccc(F)cc2Cl)cn1)N1CCC(F)(F)[C@@H](c2cc[n+]([O-])cc2)C1 [Compound 48, 4-((S)-1-((S)-1-((1-(2-chloro-4-fluorobenzyl)-1H-imidazol-4-yl)amino)-1-oxopropan-2-yl)-4,4-difluoropiperidin-3-yl)pyridine 1-oxide]
22	[2H]C([2H])(c1cc(F)cc(F)c1)n1cnc(NC(=O)[C@H](C)N2CCC(F)(F)[C@@H](c3cc[n+]([O-])cc3)C2)c1 [Compound 52, 4-((S)-1-((S)-1-((1-((3,5-difluorophenyl)methyl-d2)-1H-imidazol-4-yl)amino)-1-oxopropan-2-yl)-4,4-difluoropiperidin-3-yl)pyridine 1-oxide]
2360	C[C@@H](C(=O)Nc1cn(Cc2cc(F)cc(F)c2)cn1)N1CCC(F)(F)[C@@H](c2c[nH]c(=O)c(CO)c2)C1 (single isomer, unassigned) [Compound 71]
885	C[C@@H](C(=O)Nc1cn(Cc2cc(F)c(Cl)cc2F)cn1)N1CCC(F)(F)[C@@H](c2cc[n+]([O-])cc2)C1 [Compound 45, 4-((S)-1-((S)-1-((1-(4-chloro-2,5-difluorobenzyl)-1H-imidazol-4-yl)amino)-1-oxopropan-2-yl)-4,4-difluoropiperidin-3-yl)pyridine 1-oxide]

Second part, the compound before the results:

Compound	IC50 [nM]
C[C@@H](C(=O)Nc1cn2c(n1)CC[C@@H]2c1cc(F)cc(F)c1)N1CCC(F)(F)[C@H](c2ccc(=O)n(C)c2)C1 (single isomer, unassigned) [Compound 533]	18
C[C@@H](C(=O)Nc1cn2c(n1)CC[C@@H]2c1cc(F)cc(F)c1)N1CCC(F)(F)[C@@H](c2c[nH]c(=O)cn2)C1 (single isomer, unassigned) [Compound 527]	102
C[C@@H](C(=O)Nc1cn2c(n1)CC[C@@H]2c1cc(F)cc(F)c1)N1CCC2(CC2)[C@@H](c2cc[n+]([O-])cc2)C1 (single isomer, unassigned) [Compound 521]	4750
C[C@@H](C(=O)Nc1cn([C@@H](C)c2cc(F)cc(F)c2)cn1)N1CCC(F)(F)[C@@H](c2cc[n+]([O-])cc2)C1 (single isomer, unassigned) [Compound 15]	> 10000
C[C@@H](C(=O)Nc1cn2c(n1)[C@H](O)C[C@H]2c1cc(F)cc(F)c1)N1CCC(F)(F)[C@@H](c2ccc(=O)[nH]c2)C1 (single isomer, unassigned) [Compound 518]	> 30000
C[C@@H](C(=O)Nc1cn(Cc2ccccc2C(F)(F)F)cn1)N1CCC(F)(F)[C@@H](c2cc[n+]([O-])cc2)C1 [Compound 41, 4-((S)-4,4-difluoro-1-((S)-1-oxo-1-((1-(2-(trifluoromethyl)benzyl)-1H-imidazol-4-yl)amino)propan-2-yl)piperidin-3-yl)pyridine 1-oxide]	269
Cc1nc(NC(=O)[C@@H](C)N2CCOCC2)cn1Cc1cc(F)cc(F)c1 (single isomer, unassigned) [Compound 24]	3910
C[C@H](C(=O)Nc1nc(Cc2cc(F)cc(F)c2)no1)N1CCC(F)(F)[C@@H](c2cc[n+]([O-])cc2)C1 (single isomer, unassigned) [Compound 59]	432
C[C@H](C(=O)Nc1cn(Cc2cc(F)cc(F)c2)c(Cl)n1)N1CCC(F)(F)[C@@H](c2cc[n+]([O-])cc2)C1 (single isomer, unassigned) [Compound 81]	> 30000
O=C(Nc1cn(Cc2cc(F)cc(F)c2)cn1)[C@H]1C(F)(F)C12CCC2 [Compound 30, (S)—N-(1-(3,5-difluorobenzyl)-1H-imidazol-4-yl)-2,2-difluorospiro[2.3]hexane-1-carboxamide]	258
C[C@@H](C(=O)Nc1cn2c(n1)CC[C@H]2c1cc(F)cc(F)c1)N1CCC(F)(F)[C@H](c2ccc(=O)[nH]c2)C1 (single isomer, unassigned) [Compound 496]	3470
C[C@@H](C(=O)Nc1cn2c(n1)CC[C@@H]2c1cc(F)cc(F)c1)N1CCC(F)(F)[C@H](c2c[nH]c(=O)cn2)C1 (single isomer, unassigned) [Compound 528]	6.8
C[C@@H](C(=O)Nc1cn(Cc2cc(F)c(Cl)c(F)c2)cn1)N1CCC(F)(F)[C@@H](c2cc[n+]([O-])cc2)C1 [Compound 44, 4-((S)-1-((S)-1-((1-(4-chloro-3,5-difluorobenzyl)-1H-imidazol-4-yl)amino)-1-oxopropan-2-yl)-4,4-difluoropiperidin-3-yl)pyridine 1-oxide]	241
C[C@@H](C(=O)Nc1cn(Cc2cc(F)cc(F)c2)cn1)N1CCC(F)(F)[C@H](c2ccc(=O)n(C)c2)C1 (single isomer, unassigned) [Compound 69]	> 30000
C[C@H](C(=O)Nc1cn(Cc2ccc(F)cc2F)cn1)N1CCC(F)(F)[C@@H](c2cc[n+]([O-])cc2)C1 (single isomer, unassigned) [Compound 2]	2950
C[C@@H](C(=O)Nc1cn(Cc2cc(F)cc(F)c2)cn1)N1CCC(F)(F)[C@H](c2c[nH]c(=O)c(CO)c2)C1 (single isomer, unassigned) [Compound 73]	8560
C[C@@H](C(=O)Nc1cc2n(n1)CC[C@@H]2c1cc(F)cc(F)c1)N1CCC(F)(F)[C@@H](c2cc[n+]([O-])cc2)C1 (single isomer, unassigned) [Compound 549]	439
C[C@H](C(=O)Nc1cn2c(n1)CC[C@H]2c1cc(F)cc(F)c1)N1CCOCC1 (single isomer, unassigned) [Compound 513]	> 30000
C[C@H](C(=O)Nc1cn2c(n1)CC[C@@H]2c1cc(F)cc(F)c1)N1CCC(F)(F)[C@@H](c2cc[n+]([O-])cc2)C1 (single isomer, unassigned) [Compound 488]	8810
C[C@H](C(=O)Nc1cn(Cc2cc(F)cc(F)c2)c(CF)n1)N1CCC(F)(F)[C@@H](c2cc[n+]([O-])cc2)C1 (single isomer, unassigned) [Compound 61]	477
C[C@@H](C(=O)Nc1cn2c(n1)CC[C@@H]2c1cc(F)cc(F)c1)N1CCC(F)(F)[C@@H](c2cc[n+]([O-])c(CO)c2)C1 (single isomer, unassigned) [Compound 525]	5480

Reference: patent US20250122171A1, “Substituted Amine Compounds, Compositions and Methods of Use” (Deep Apple Therapeutics, Inc., priority 2023, published 2025)
